# Read-outs that look alike come from different tables or passages of the source.
# Tests used:
# HIV-1 [1] = conditions: Assay #8
# Protocol: (§1) Reverse transcriptase (RT) activity was measured in cell-free supernatants. Tritiated thymidine triphosphate (NEN) (TTP) was resuspended in distilled H2O at 5 Cl/mL. Poly rA and oligo dT were prepared as a stock solution which was kept at −20° C. The RT reaction buffer was prepared fresh on a daily basis and consists of 125 μL 1.0 M EGTA, 125 μL d H2O, 110 μL 10% SDS, 50 μL 1.0 M Tris (pH 7.4), 50 μL 1.0 M DTT, and 40μ1.0 M MgCl2. These three solutions were mixed together in a ratio of 2 parts TTP, 1 part poly rA:oligo dT, and 1 part reaction buffer. Ten microliters of this reaction mixture was placed in a round bottom microtiter plate and 15 μL of virus containing supernatant was added and mixed. The plate was incubated at 37° C. in a water bath with a solid support to prevent submersion of the plate and incubated for 60 minutes. Following reaction, the reaction volume was spotted onto pieces of DE81 paper, washed 5 times for 5 minutes each in a 5% sodium phosphate buffer, 2 times for 1 minute each in distilled water, 2 times for 1 minute each in 70% ethanol, and then dried. Opti-Fluor O was added to each sample and incorporated radioactivity was quantitated utilizing a Wallace 1450 Microbetaplus liquid scintillation counter.
# (§2) Control groups were not treated with the enzyme.
# HIV-1 [2] = conditions: Assay #7
# Protocol: as §1, §2
# HIV-1 [3] = conditions: Assay #6
# Protocol: as §1, §2
# ROJO (low passage HIV-1) = experiment: Study 2 hyaluronidase chronic overlay testing: RT activity after secondary ROJO infection; format: cell-based
# From the text: Percent virus control (% VC) in the following tables is the mean RT activity (cpm) as a percentage of a virus control. Percent cell control (% CC) is the mean XTT absorbance as a percentage of a cell control.
# Method A. Peripheral blood monocytes were isolated from normal HIV-1 negative donors by plastic adherence following ficall hypaque purification of the buffy coat PBMCs. For isolation of adherent cells, 3×10^6/ml non-PHA stimulated peripheral blood cells were resuspended in Hanks buffered saline (with calcium and magnesium) supplemented with 10% human AB serum, and 200 μl per well placed in a 96 well lat bottomed microtiter plate. The cells were incubated overnight at 37° C., 5% CO2. Non-adherent cells were removed by washing six time with a Ca^++, Mg^++ containing medium. The adherent cells after the final wash were supplemented with RPMI 1640 supplemented with 15% fetal bovine serum (heat inactivated), 2 mM L-glutamine, 100 U/mL penicillin, 100 μg/mL streptomycin and 10 μg/mL gentamycin, and cultured for 7 days. The cultures were washed one final time before addition of compounds to remove any non-adherent cells. The cultures are carefully monitored for confluency prior to assay.
# Reverse transcriptase (RT) activity was measured in cell-free supernatants. Tritiated thymidine triphosphate (NEN) (TTP) was resuspended in distilled H2O at […]. Poly rA and oligo dT were prepared as a stock solution which was kept at −20° C. The RT reaction buffer was prepared fresh on a daily basis and consists of 125 μL 1.0 M EGTA, 125 μL d H2O, 110 μL 10% SDS, 50 μL 1.0 M Tris (pH 7.4), 50 μL 1.0 M DTT, and 40μ1.0 M MgCl2. These three solutions were mixed together in a ratio of 2 parts TTP, 1 part poly rA:oligo dT, and 1 part reaction buffer. Ten microliters of this reaction mixture was placed in a round bottom microtiter plate and 15 μL of virus containing supernatant was added and mixed. The plate was incubated at 37° C. in a water bath with a solid support to prevent submersion of the plate and incubated for 60 minutes. Following reaction, the reaction volume was spotted onto pieces of DE81 paper, washed 5 times for 5 minutes each in a 5% sodium phosphate buffer, 2 times for 1 minute each in distilled water, 2 times for 1 minute each in 70% ethanol, and then dried. Opti-Fluor O was added to each sample and incorporated radioactivity was quantitated utilizing a Wallace 1450 Microbetaplus liquid scintillation counter.
# Assay method. Seven day old Rojo chronically infected (and uninfected control) PBMCs are pre-treated with two fold dilutions of HLDA-1 for 48 hours. Treated cells are 2× washed with PBS and overlayed onto seven day old macrophages for 72 hours at which time the PBMCs were washed off and replaced with fresh uninfected pha blast PBMCs in the presence of IL-1 (5.0 ng/mL) and IL-2 (20U/mL). Overlayed cells are incubated for 48 hours 50% of cells transferred to a fresh 96 well plate, and then both the original and transfer plate infected with ROJO at a standard MOI. Samples for reverse transcriptase and toxicity testing were processed on day 7 post secondary infection.
# HIV-1 [4] = conditions: Assay #5
# Protocol: as §1, §2
substance,measurement,setting,value
Hyaluronidase,% Control,HIV-1 [1]; 5 mg/mL,171.3%
same,Mean RT,HIV-1 [1]; 5 mg/mL,30167.3 cpm
same,% Control,HIV-1 [1]; 10 mg/mL,63.8%
same,Mean RT,HIV-1 [1]; 10 mg/mL,11241 cpm
same,% Control,HIV-1 [1]; 20 mg/mL,51.2%
same,Mean RT,HIV-1 [1]; 20 mg/mL,9014.3 cpm
same,"% Control, Sum","HIV-1 [1]; Sum over 20, 10, 5 mg/mL",286.3%
same,"Mean RT, Sum","HIV-1 [1]; Sum over 20, 10, 5 mg/mL",50422.6 cpm
same,% Control,HIV-1 [2]; 5 mg/mL,111.3%
same,Mean RT,HIV-1 [2]; 5 mg/mL,18777.7 cpm
same,% Control,HIV-1 [2]; 10 mg/mL,122.2%
same,Mean RT,HIV-1 [2]; 10 mg/mL,20614.7 cpm
same,% Control,HIV-1 [2]; 20 mg/mL,162.7%
same,Mean RT,HIV-1 [2]; 20 mg/mL,27462 cpm
same,"% Control, Sum","HIV-1 [2]; Sum over 20, 10, 5 mg/mL",396.2%
same,"Mean RT, Sum","HIV-1 [2]; Sum over 20, 10, 5 mg/mL",66854.4 cpm
same,% Control,HIV-1 [3]; 5 mg/mL,54.1%
same,Mean RT,HIV-1 [3]; 5 mg/mL,12279.7 cpm
same,% Control,HIV-1 [3]; 10 mg/mL,49.6%
same,Mean RT,HIV-1 [3]; 10 mg/mL,11244.7 cpm
same,% Control,HIV-1 [3]; 20 mg/mL,19.5%
same,Mean RT,HIV-1 [3]; 20 mg/mL,4430.7 cpm
same,"% Control, Sum","HIV-1 [3]; Sum over 20, 10, 5 mg/mL",123.2%
same,"Mean RT, Sum","HIV-1 [3]; Sum over 20, 10, 5 mg/mL",27955.1 cpm
same,RT activity % VC,"ROJO (low passage HIV-1); Table 4, 2.5 units/mL, Rojo chronic PBMCs, Macrophage + PBMCs",207.4%
same,RT activity % VC,"ROJO (low passage HIV-1); Table 4, 2.5 units/mL, Rojo chronic PBMCs, Transfer PBMCs",183.0%
same,RT activity % VC,"ROJO (low passage HIV-1); Table 4, 2.5 units/mL, control uninfected PBMCs, Macrophage + PBMCs",102.3%
same,RT activity % VC,"ROJO (low passage HIV-1); Table 4, 2.5 units/mL, control uninfected PBMCs, Transfer PBMCs",47.3%
same,RT activity % VC,"ROJO (low passage HIV-1); Table 4, 3.75 units/mL, Rojo chronic PBMCs, Macrophage + PBMCs",124.1%
same,RT activity % VC,"ROJO (low passage HIV-1); Table 4, 3.75 units/mL, Rojo chronic PBMCs, Transfer PBMCs",126.5%
same,RT activity % VC,"ROJO (low passage HIV-1); Table 4, 3.75 units/mL, control uninfected PBMCs, Macrophage + PBMCs",111.5%
same,RT activity % VC,"ROJO (low passage HIV-1); Table 4, 3.75 units/mL, control uninfected PBMCs, Transfer PBMCs",34.4%
same,RT activity % VC,"ROJO (low passage HIV-1); Table 4, 5 units/mL, Rojo chronic PBMCs, Macrophage + PBMCs",22.2%
same,RT activity % VC,"ROJO (low passage HIV-1); Table 4, 5 units/mL, Rojo chronic PBMCs, Transfer PBMCs",24.2%
same,RT activity % VC,"ROJO (low passage HIV-1); Table 4, 5 units/mL, control uninfected PBMCs, Macrophage + PBMCs",71.1%
same,RT activity % VC,"ROJO (low passage HIV-1); Table 4, 5 units/mL, control uninfected PBMCs, Transfer PBMCs",18.0%
same,RT activity % VC,"ROJO (low passage HIV-1); Table 4, 7.5 units/mL, Rojo chronic PBMCs, Macrophage + PBMCs",12.7%
same,RT activity % VC,"ROJO (low passage HIV-1); Table 4, 7.5 units/mL, Rojo chronic PBMCs, Transfer PBMCs",21.9%
same,RT activity % VC,"ROJO (low passage HIV-1); Table 4, 7.5 units/mL, control uninfected PBMCs, Macrophage + PBMCs",56.4%
same,RT activity % VC,"ROJO (low passage HIV-1); Table 4, 7.5 units/mL, control uninfected PBMCs, Transfer PBMCs",26.8%
same,RT activity % VC,"ROJO (low passage HIV-1); Table 4, 10 units/mL, Rojo chronic PBMCs, Macrophage + PBMCs",14.8%
same,RT activity % VC,"ROJO (low passage HIV-1); Table 4, 10 units/mL, Rojo chronic PBMCs, Transfer PBMCs",21.5%
same,RT activity % VC,"ROJO (low passage HIV-1); Table 4, 10 units/mL, control uninfected PBMCs, Macrophage + PBMCs",56.2%
same,RT activity % VC,"ROJO (low passage HIV-1); Table 4, 10 units/mL, control uninfected PBMCs, Transfer PBMCs",21.2%
same,RT activity % VC,"ROJO (low passage HIV-1); Table 4, 15 units/mL, Rojo chronic PBMCs, Macrophage + PBMCs",13.3%
same,RT activity % VC,"ROJO (low passage HIV-1); Table 4, 15 units/mL, Rojo chronic PBMCs, Transfer PBMCs",21.9%
same,RT activity % VC,"ROJO (low passage HIV-1); Table 4, 15 units/mL, control uninfected PBMCs, Macrophage + PBMCs",40.2%
same,RT activity % VC,"ROJO (low passage HIV-1); Table 4, 15 units/mL, control uninfected PBMCs, Transfer PBMCs",20.6%
same,RT activity % VC,"ROJO (low passage HIV-1); Table 4, 20 units/mL, Rojo chronic PBMCs, Macrophage + PBMCs",14.2%
same,RT activity % VC,"ROJO (low passage HIV-1); Table 4, 20 units/mL, Rojo chronic PBMCs, Transfer PBMCs",13.6%
same,RT activity % VC,"ROJO (low passage HIV-1); Table 4, 20 units/mL, control uninfected PBMCs, Macrophage + PBMCs",41.9%
same,RT activity % VC,"ROJO (low passage HIV-1); Table 4, 20 units/mL, control uninfected PBMCs, Transfer PBMCs",33.0%
same,RT activity % VC,"ROJO (low passage HIV-1); Table 4, 30 units/mL, Rojo chronic PBMCs, Macrophage + PBMCs",19.9%
same,RT activity % VC,"ROJO (low passage HIV-1); Table 4, 30 units/mL, Rojo chronic PBMCs, Transfer PBMCs",18.0%
same,RT activity % VC,"ROJO (low passage HIV-1); Table 4, 30 units/mL, control uninfected PBMCs, Macrophage + PBMCs",43.8%
same,RT activity % VC,"ROJO (low passage HIV-1); Table 4, 30 units/mL, control uninfected PBMCs, Transfer PBMCs",24.0%
same,RT activity % VC,"ROJO (low passage HIV-1); Table 5, 2.5 units/mL, Rojo chronic PBMCs, Macrophage + PBMCs",164.0%
same,RT activity % VC,"ROJO (low passage HIV-1); Table 5, 2.5 units/mL, Rojo chronic PBMCs, Transfer PBMCs",106.0%
same,RT activity % VC,"ROJO (low passage HIV-1); Table 5, 2.5 units/mL, control uninfected PBMCs, Transfer PBMCs",136.0%
same,RT activity % VC,"ROJO (low passage HIV-1); Table 5, 3.75 units/mL, Rojo chronic PBMCs, Macrophage + PBMCs",191.7%
same,RT activity % VC,"ROJO (low passage HIV-1); Table 5, 3.75 units/mL, Rojo chronic PBMCs, Transfer PBMCs",152.4%
same,RT activity % VC,"ROJO (low passage HIV-1); Table 5, 3.75 units/mL, control uninfected PBMCs, Macrophage + PBMCs",108.5%
same,RT activity % VC,"ROJO (low passage HIV-1); Table 5, 3.75 units/mL, control uninfected PBMCs, Transfer PBMCs",195.0%
same,RT activity % VC,"ROJO (low passage HIV-1); Table 5, 5 units/mL, Rojo chronic PBMCs, Macrophage + PBMCs",253.5%
same,RT activity % VC,"ROJO (low passage HIV-1); Table 5, 5 units/mL, control uninfected PBMCs, Macrophage + PBMCs",184.7%
same,RT activity % VC,"ROJO (low passage HIV-1); Table 5, 5 units/mL, control uninfected PBMCs, Transfer PBMCs",380.0%
same,RT activity % VC,"ROJO (low passage HIV-1); Table 5, 7.5 units/mL, Rojo chronic PBMCs, Macrophage + PBMCs",476.0%
same,RT activity % VC,"ROJO (low passage HIV-1); Table 5, 7.5 units/mL, Rojo chronic PBMCs, Transfer PBMCs",792.6%
same,RT activity % VC,"ROJO (low passage HIV-1); Table 5, 10 units/mL, Rojo chronic PBMCs, Transfer PBMCs",730.4%
same,RT activity % VC,"ROJO (low passage HIV-1); Table 5, 10 units/mL, control uninfected PBMCs, Macrophage + PBMCs",965.0%
same,RT activity % VC,"ROJO (low passage HIV-1); Table 5, 20 units/mL, Rojo chronic PBMCs, Macrophage + PBMCs",375.9%
same,RT activity % VC,"ROJO (low passage HIV-1); Table 5, 20 units/mL, Rojo chronic PBMCs, Transfer PBMCs",284.2%
same,RT activity % VC,"ROJO (low passage HIV-1); Table 5, 20 units/mL, control uninfected PBMCs, Macrophage + PBMCs",196.8%
same,RT activity % VC,"ROJO (low passage HIV-1); Table 5, 20 units/mL, control uninfected PBMCs, Transfer PBMCs",383.0%
same,RT activity % VC,"ROJO (low passage HIV-1); Table 5, 30 units/mL, Rojo chronic PBMCs, Macrophage + PBMCs",291.8%
same,RT activity % VC,"ROJO (low passage HIV-1); Table 5, 30 units/mL, Rojo chronic PBMCs, Transfer PBMCs",222.3%
same,RT activity % VC,"ROJO (low passage HIV-1); Table 5, 30 units/mL, control uninfected PBMCs, Macrophage + PBMCs",163.1%
same,RT activity % VC,"ROJO (low passage HIV-1); Table 5, 30 units/mL, control uninfected PBMCs, Transfer PBMCs",142.7%
same,% Control,HIV-1 [4]; 5 mg/mL,65.1%
same,Mean RT,HIV-1 [4]; 5 mg/mL,12442.7 cpm
same,% Control,HIV-1 [4]; 10 mg/mL,58.3%
same,Mean RT,HIV-1 [4]; 10 mg/mL,11156.3 cpm
same,% Control,HIV-1 [4]; 20 mg/mL,18.5%
same,"% Control, Sum","HIV-1 [4]; Sum over 20, 10, 5 mg/mL",141.9%
same,"Mean RT, Sum","HIV-1 [4]; Sum over 20, 10, 5 mg/mL",23599 cpm
